Data from patent publication US11618747B2, “LXR modulators with bicyclic core moiety” (OrsoBio, Inc., priority 2018, dated 2023).
Where two headings read alike, the source gives them in different places.

Assays:
[1] = target: T1, full length (FL) LXRα (Homo sapiens, UniProt Q13133); assay: LXR Gal4 reporter transient transfection assay (FL-M2H Gal4α); type: cell-based; details: HEK293 cells
T1 construct: the full length (FL) proteins of LXRα (amino acids 1-447); NP005684; expressed in transfected cells; host or cells: HEK293
T1 sequence (Q13133 1-447): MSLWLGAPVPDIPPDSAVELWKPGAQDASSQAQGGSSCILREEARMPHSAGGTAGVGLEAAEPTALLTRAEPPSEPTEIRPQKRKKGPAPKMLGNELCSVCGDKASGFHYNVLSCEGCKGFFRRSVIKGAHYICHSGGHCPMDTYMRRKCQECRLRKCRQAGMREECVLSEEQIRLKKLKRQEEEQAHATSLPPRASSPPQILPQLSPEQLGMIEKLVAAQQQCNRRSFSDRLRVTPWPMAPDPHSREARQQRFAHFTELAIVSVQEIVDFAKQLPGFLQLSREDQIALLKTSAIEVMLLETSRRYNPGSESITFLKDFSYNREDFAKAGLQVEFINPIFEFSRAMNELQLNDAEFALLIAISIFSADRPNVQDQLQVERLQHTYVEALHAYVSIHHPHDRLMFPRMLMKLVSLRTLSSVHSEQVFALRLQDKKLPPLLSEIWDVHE
Summary of the method: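 HEK293 cells were transiently co-transfected with NFkB activation-domain fusions of LXR (full length or LBD) and GAL4 DNA-binding-domain fusions of SRC1 (aa 552-887) or NCoR (aa 1906-2312), plus a GAL4-response-element Firefly luciferase reporter and a Renilla control. Compounds were added 4 h post-transfection, cells incubated 16 h, then dual luciferase read.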

[2] = Short term HFD mouse model: plasma and liver exposure; type: in vivo, mice (C57BL/6J); details: HFD mice, 4 h after last dose
Experimental: Short Term HFD Mouse Model:
The in vivo transcriptional regulation of several LXR target genes by LXR modulators was assessed in mice.
For this, C57BL/6J were purchased from Elevage Janvier (Rennes, France) at the age of 8 weeks. After an acclimation period of two weeks, animals were preferred on a high fat diet (HFD) (Ssniff Spezialdiäten GmbH, Germany, Surwit EF D12330 mod, Cat. No. E15771-34), with 60 kcal % from fat plus 1% (w/w) extra cholesterol (Sigma-Aldrich, St. Louis, Mo.) for 5 days. Animals were maintained on this diet during treatment with LXR modulators. The test compounds were formulated in 0.5% hydroxypropylmethylcellulose (HPMC) and administered in three doses (from 1.5 to 20 mg/kg each) by oral gavage according to the following schedule: on day one, animals received treatment in the morning and the evening (ca. 17:00), on day two animals received the final treatment in the morning after a 4 h fast and were sacrificed 4 h thereafter. Animal work was conducted according to the national guidelines for animal care in Germany.
Upon termination, liver was collected, dipped in ice cold PBS for 30 seconds and cut into appropriate pieces. Pieces were snap frozen in liquid nitrogen and stored at −80° C. For the clinical chemistry analysis from plasma, alanine aminotransferase (ALT, IU/mL), cholesterol (CHOL, mg/dL) and triglycerides (TG, mg/dL) were determined using a fully-automated bench top analyzer (Respons®910, DiaSys Greiner GmbH, Flacht, Germany) with system kits provided by the manufacturer.

[3] = full length LXRα, read-out: FL-M2H Gal4α (EC50 range)

SMILES	EC50 [1, 3] [nM]	liver exposure 4 h ([2]; three oral doses of 10 mg/kg)	liver/plasma ratio 4 h ([2]; three oral doses of 10 mg/kg)	plasma exposure 4 h ([2]; three oral doses of 10 mg/kg)	liver exposure 4 h ([2]; three oral doses of 20 mg/kg)	liver/plasma ratio 4 h ([2]; three oral doses of 20 mg/kg)	plasma exposure 4 h ([2]; three oral doses of 20 mg/kg)	FL-M2H Gal4α efficacy (value in brackets) [1] [%]	EC50 ([1]; read-out: FL-M2H Gal4α potency) [nM]
N#Cc1cccc(C#N)c1-c1c(-c2cccc(-c3ccc(C(=O)O)cc3F)c2)n(S(=O)(=O)c2ccc(C(F)F)cc2)c2ccc(F)cc12 [11/51]	< 100	C (1 μM to ≤10 μM)	C (30 to ≤100)	D (D: <100 nM)					
N#Cc1sccc1-c1c(-c2cccc(-c3ccc(C(=O)O)cc3Cl)c2)n(S(=O)(=O)c2ccc(C(F)(F)F)nc2)c2ccc(F)cc12 [11/16]	< 100				C (1 μM to ≤10 μM)	B (5 to ≤30)	C (C: 100 nM to <300 nM)		
N#Cc1cccc(C#N)c1-c1c(-c2cccc(-c3ccc(C(=O)O)cc3Cl)c2)n(S(=O)(=O)C2CCC(F)(F)CC2)c2ccc(F)cc12 [11/63]	< 100	C (1 μM to ≤10 μM)	B (5 to ≤30)	D (D: <100 nM)					
N#Cc1ccccc1-c1c(-c2cccc(-c3ccc(C(=O)O)cc3Cl)c2)n(S(=O)(=O)c2ccc(C(F)F)cc2)c2cnccc12 [11/49]	< 100				C (1 μM to ≤10 μM)	D (>100)	D (D: <100 nM)		
Cc1ccc(S(=O)(=O)n2c(-c3cccc(N4CC(C(=O)O)C4)c3)c(-c3ccsc3C#N)c3cc(Cl)ccc32)cc1 [3/44]	< 100								
CC(=O)NS(=O)(=O)c1ccc(-c2cccc(-c3c(-c4c(C#N)cccc4C#N)c4cc(F)ccc4n3S(=O)(=O)c3ccc(C(F)F)cc3)c2)c(Cl)c1 [8/8]	< 100	B (300 nM to ≤1 μM)	B (5 to ≤30)	C (C: 100 nM to <300 nM)					
N#Cc1cccnc1-c1c(-c2cccc(-c3ccc(C(=O)O)cc3Cl)c2)n(S(=O)(=O)c2ccc(C(F)F)cc2)c2ccc(F)cc12 [11/26]	< 100	C (1 μM to ≤10 μM)	C (30 to ≤100)	C (C: 100 nM to <300 nM)					
Cc1ccc(S(=O)(=O)n2c(-c3cccc(-c4ccc(C(=O)O)cc4)c3)c(-c3ccsc3C#N)c3cc(F)ccc32)cc1C [23/2]	< 100				A (<300 nM)	A (<5)	C (C: 100 nM to <300 nM)		
N#Cc1cccc(C#N)c1-c1c(-c2cccc(-c3c(F)cc(CC(=O)O)cc3F)c2)n(S(=O)(=O)c2ccc(C(F)F)cc2)c2ccc(F)cc12 [3/73]	< 100	B (300 nM to ≤1 μM)	C (30 to ≤100)	D (D: <100 nM)					
CN(CCS(=O)(=O)O)C(=O)c1ccc(-c2cccc(-c3c(-c4c(C#N)cccc4C#N)c4cc(F)ccc4n3S(=O)(=O)c3ccc(C(F)F)cc3)c2)c(Cl)c1 [10/2]	< 100	D (>10 μM)	B (5 to ≤30)	D (D: <100 nM)					
N#Cc1nccnc1-c1c(-c2cccc(-c3cc(F)c(C(=O)O)cc3Cl)c2)n(S(=O)(=O)c2ccc(C(F)F)cc2)c2ccc(F)cc12 [11/11]	< 100				D (>10 μM)	D (>100)	D (D: <100 nM)		
O=C(O)c1ccc(-c2cccc(-c3c(-c4ccccc4C4COC4)c4cc(F)ccc4n3S(=O)(=O)c3ccc(C(F)F)cc3)c2)c(Cl)c1 [3/59]	< 100				C (1 μM to ≤10 μM)	B (5 to ≤30)	C (C: 100 nM to <300 nM)		
Cc1ccc(S(=O)(=O)n2c(-c3cccc(-c4ccc(C(=O)O)cc4Cl)c3)c(-c3ccsc3C#N)c3cc(F)ccc32)cc1 [3/48]	< 100				C (1 μM to ≤10 μM)	C (30 to ≤100)	D (D: <100 nM)		
Cc1ccc(S(=O)(=O)n2c(-c3cccc(C45CCC(C(=O)O)(CC4)CC5)c3)c(-c3ccsc3C#N)c3cc(F)ccc32)cc1 [3/64]	< 100				D (>10 μM)	D (>100)	C (C: 100 nM to <300 nM)		
N#Cc1cccc(C#N)c1-c1c(-c2cccc(-c3ccc(C(=O)O)cc3Cl)c2)n(S(=O)(=O)c2ccc(C(F)(F)F)nc2)c2ccc(F)cc12 [11/37]	< 100	C (1 μM to ≤10 μM)	C (30 to ≤100)	D (D: <100 nM)					
O=C(O)c1ccc(-c2cccc(-c3c(-c4ncccc4C(F)(F)F)c4cc(F)ccc4n3S(=O)(=O)c3ccc(C(F)F)cc3)c2)c(Cl)c1 [11/23]	< 100				C (1 μM to ≤10 μM)	B (5 to ≤30)	C (C: 100 nM to <300 nM)		
O=C(O)c1ccc(-c2cccc(-c3c(-c4c(Cl)cccc4Cl)c4cc(F)ccc4n3S(=O)(=O)c3ccc(C(F)F)cc3)c2)c(Cl)c1 [11/13]	< 100				C (1 μM to ≤10 μM)	A (<5)	A (A: >1 μM)		
Cc1ccc(S(=O)(=O)n2c(-c3cccc(N4CC(C(=O)O)C4)c3)c(-c3ccsc3C#N)c3cc(F)ccc32)cc1 [3/32]	100 to 1000								
COc1c(C(=O)O)ccc(-c2cccc(-c3c(-c4ccccc4C#N)c4cc(F)ccc4n3S(=O)(=O)c3ccc(C(F)F)cc3)c2)c1Cl [11/27]	< 100				C (1 μM to ≤10 μM)	C (30 to ≤100)	D (D: <100 nM)		
Cc1ccc(S(=O)(=O)n2c(-c3cccc(N4CC(C(=O)O)C4)c3)c(-c3ccsc3C#N)c3cc(F)c(F)cc32)cc1 [3/42]	100 to 1000								
N#Cc1cccc(C#N)c1-c1c(-c2cccc(-c3ccc(C(=O)O)cc3Cl)c2)n(S(=O)(=O)c2ccc(C(F)F)cc2)c2ccc(F)cc12 [11/12]	< 100				C (1 μM to ≤10 μM)	C (30 to ≤100)	D (D: <100 nM)		
Cc1ccc(S(=O)(=O)n2c(-c3cccc(-c4ccc(C(=O)O)cc4)c3)c(-c3ccsc3C#N)c3cc(F)ccc32)cc1 [5/3]					C (1 μM to ≤10 μM)	B (5 to ≤30)	D (D: <100 nM)		
N#Cc1cccc(C#N)c1-c1c(-c2cccc(-c3c(F)cc(C(=O)O)cc3F)c2)n(S(=O)(=O)c2ccc(C(F)F)cc2)c2ccc(F)cc12 [11/53]	< 100	C (1 μM to ≤10 μM)	C (30 to ≤100)	D (D: <100 nM)					
N#Cc1cccc(C#N)c1-c1c(-c2cccc(-c3cc(F)c(C(=O)O)cc3Cl)c2)n(S(=O)(=O)c2ccc(C(F)F)cc2)c2ccc(F)cc12 [11/65]	< 100	C (1 μM to ≤10 μM)	C (30 to ≤100)	D (D: <100 nM)					
Cc1ccc(S(=O)(=O)n2c(-c3cccc(N4CC(C(=O)O)C4)c3)c(-c3ccsc3C#N)c3cc(F)c(Cl)cc32)cc1 [3/43]	100 to 1000								
N#Cc1cccc(C#N)c1-c1c(-c2cccc(-c3ccc(C(=O)NCC(=O)O)cc3Cl)c2)n(S(=O)(=O)c2ccc(C(F)F)cc2)c2ccc(F)cc12 [21/3]	< 100	C (1 μM to ≤10 μM)	D (>100)	D (D: <100 nM)					
N#Cc1ccccc1-c1c(-c2cccc(-c3ccc(C(=O)O)cc3Cl)c2)n(S(=O)(=O)c2ccc(C(F)F)cc2)c2ccc(F)cc12 [11/33]	< 100				C (1 μM to ≤10 μM)	C (30 to ≤100)	C (C: 100 nM to <300 nM)	164	1.3
Cc1ccc(S(=O)(=O)n2c(-c3cccc(N4CC(C(=O)O)C4)c3)c(-c3ccsc3C#N)c3cc(C)ccc32)cc1 [3/46]	< 100								
